Laboratory results from ChEMBL document CHEMBL5120922, “Discovery, Optimization, and Evaluation of Potent and Selective PI3Kδ-γ Dual Inhibitors for the Treatment of B-cell Malignancies” (J Med Chem, 2022).
The source made the active and inactive calls. No cut-off for these calls is given here.

Tests used:
[1] = Half life in Sprague-Dawley rat at 5 mg/kg, po measured upto 24 hrs by LC-MS/MS analysis; type: ADME, organism-based; conditions: in vivo
SU-DHL-6 [2] = assay: Induction of apoptosis in human SU-DHL-6 cells assessed as necrotic cells at 1.5 uM incubated for 48 hrs in presence of ibrutinib by annexin V-FITC and PI staining based flow cytometry analysis (reference value: 0.32%); type: functional
[3] = Cmax in Sprague-Dawley rat at 5 mg/kg, iv measured upto 24 hrs by LC-MS/MS analysis; type: ADME, organism-based; set-up: time < 24 hrs, dose 5 mg/kg, route iv; conditions: in vivo
[4] = target: T1, Phosphatidylinositol 4,5-bisphosphate 3-kinase catalytic subunit delta isoform (Homo sapiens, UniProt O00329); assay: Inhibition of N-terminal His6-tagged recombinant full length human PI3Kdelta expressed in baculovirus infected Sf21 insect cells incubated for 30 mins by HTRF assay
T1 sequence (O00329 whole entry): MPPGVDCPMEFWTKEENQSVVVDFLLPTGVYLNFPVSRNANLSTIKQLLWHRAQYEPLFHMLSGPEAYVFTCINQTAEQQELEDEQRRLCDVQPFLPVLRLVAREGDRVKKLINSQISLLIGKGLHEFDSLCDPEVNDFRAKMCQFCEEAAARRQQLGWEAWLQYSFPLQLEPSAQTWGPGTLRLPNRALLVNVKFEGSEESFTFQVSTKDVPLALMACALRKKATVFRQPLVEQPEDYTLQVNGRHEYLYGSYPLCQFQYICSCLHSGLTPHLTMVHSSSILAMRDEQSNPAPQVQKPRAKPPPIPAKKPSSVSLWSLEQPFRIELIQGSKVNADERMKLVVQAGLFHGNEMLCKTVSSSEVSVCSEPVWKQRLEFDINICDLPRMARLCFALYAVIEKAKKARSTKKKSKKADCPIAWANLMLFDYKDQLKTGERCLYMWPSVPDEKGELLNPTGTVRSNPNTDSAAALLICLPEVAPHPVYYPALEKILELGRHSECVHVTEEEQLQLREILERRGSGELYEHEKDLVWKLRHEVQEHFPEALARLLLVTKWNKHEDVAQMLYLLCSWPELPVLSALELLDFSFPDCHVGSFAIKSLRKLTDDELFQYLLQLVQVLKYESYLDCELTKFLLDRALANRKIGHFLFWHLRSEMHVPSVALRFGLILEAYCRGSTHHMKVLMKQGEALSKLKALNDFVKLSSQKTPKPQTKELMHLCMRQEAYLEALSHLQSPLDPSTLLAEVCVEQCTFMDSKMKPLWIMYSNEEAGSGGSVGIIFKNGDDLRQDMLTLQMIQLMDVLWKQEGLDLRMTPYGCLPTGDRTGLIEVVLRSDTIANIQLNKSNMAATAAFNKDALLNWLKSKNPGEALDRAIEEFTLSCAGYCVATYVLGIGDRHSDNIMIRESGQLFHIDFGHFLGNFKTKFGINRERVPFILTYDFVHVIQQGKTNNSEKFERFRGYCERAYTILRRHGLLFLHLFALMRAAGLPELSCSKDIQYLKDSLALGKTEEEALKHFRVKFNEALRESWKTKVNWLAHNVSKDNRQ

SU-DHL-6 [5] = assay: Induction of cell cycle arrest in human SU-DHL-6 cells assessed as accumulation of cells at S phase at 0.5 uM incubated for 24 hrs by PI staining based FACScan flow cytometry analysis (reference value: 24.18 %); type: functional
[6] = target: Phosphatidylinositol 4,5-bisphosphate 3-kinase catalytic subunit beta isoform (Homo sapiens, UniProt P42338); assay: Inhibition of N-terminal His6-tagged recombinant full length human PI3Kbeta expressed in baculovirus infected Sf21 insect cells incubated for 30 mins by HTRF assay
SU-DHL-6 [7] = assay: Induction of apoptosis in human SU-DHL-6 cells assessed as viable cells at 1.5 uM incubated for 48 hrs by annexin V-FITC and PI staining based flow cytometry analysis (reference value: 87.0 %); type: functional; conditions: read-out: Activity
SUD4 = assay: Antiproliferative activity against human SU-DHL-4 cells assessed as cell growth inhibition measured after 72 hrs by MTT assay; type: functional, cell-based; conditions: SU-DHL-4, 72 h
SU-DHL-6 [8] = assay: Induction of cell cycle arrest in human SU-DHL-6 cells assessed as accumulation of cells at G2/M phase at 0.5 uM incubated for 24 hrs by PI staining based FACScan flow cytometry analysis (reference value: 20.21 %); type: functional
DOHH-2 [9] = assay: Induction of apoptosis in human DOHH-2 cells assessed as late apoptotic cells at 2 uM incubated for 48 hrs in presence of ibrutinib by annexin V-FITC and PI staining based flow cytometry analysis (reference value: 2.20 %); type: functional
SU-DHL-6 [10] = assay: Induction of apoptosis in human SU-DHL-6 cells assessed as late apoptotic cells at 1.5 uM incubated for 48 hrs by annexin V-FITC and PI staining based flow cytometry analysis (reference value: 3.88 %); type: functional
[11] = Toxicity in human SU-DHL-6 cells xenografted in NOD/SCID mouse at 10 mg/kg, po measured every 2 days in presence of ibrutinib; type: organism-based; conditions: in vivo, 48 h, time 2 day
[12] = Oral bioavailability in Sprague-Dawley rat at 5 mg/kg measured upto 24 hrs by LC-MS/MS analysis; type: ADME, organism-based; conditions: in vivo
DOHH-2 [13] = assay: Induction of cell cycle arrest in human DOHH-2 cells assessed as accumulation of cells at S phase at 0.5 uM incubated for 24 hrs in presence of ibrutinib by PI staining based flow cytometry analysis (reference value: 55.11 %); type: functional
[14] = target: Phosphatidylinositol 4,5-bisphosphate 3-kinase catalytic subunit alpha isoform (Homo sapiens, UniProt P42336); assay: Inhibition of N-terminal His6-tagged recombinant full length human PI3Kalpha expressed in baculovirus infected Sf21 insect cells incubated for 30 mins by HTRF assay
SU-DHL-6 [15] = assay: Induction of cell cycle arrest in human SU-DHL-6 cells assessed as accumulation of cells at G0/G1 phase at 0.5 uM incubated for 24 hrs by PI staining based FACScan flow cytometry analysis (reference value: 55.61 %); type: functional
SU-DHL-6 [16] = assay: Antitumor activity against human SU-DHL-6 cells xenografted in po dosed NOD/SCID mouse assessed as tumor volume suppression measured every 2 days; type: functional, organism-based; conditions: time 2.0 day, DDE = dose-dependent effect
[17] = Binding affinity to N-terminal His6-tagged recombinant full length human PI3K expressed in baculovirus infected Sf21 insect cells at 10 uM in presence of [gamma-33ATP] by scintillation counting based radiometry assay relative to control
[18] = Volume of distribution at steady state in Sprague-Dawley rat at 5 mg/kg, iv measured upto 24 hrs by LC-MS/MS analysis; type: ADME, organism-based; conditions: in vivo, read-out: Vdss
SU-DHL-6 [19] = assay: Induction of cell cycle arrest in human SU-DHL-6 cells assessed as accumulation of cells at G2/M phase at 0.5 uM incubated for 24 hrs in presence of ibrutinib by PI staining based FACScan flow cytometry analysis (reference value: 20.21 %); type: functional
SU-DHL-6 [20] = assay: Induction of apoptosis in human SU-DHL-6 cells assessed as late apoptotic cells at 1.5 uM incubated for 48 hrs in presence of ibrutinib by annexin V-FITC and PI staining based flow cytometry analysis (reference value: 3.88 %); type: functional
[21] = Clearance in Sprague-Dawley rat at 5 mg/kg, iv measured upto 24 hrs by LC-MS/MS analysis; type: ADME, organism-based; conditions: in vivo

Sequence of Phosphatidylinositol 4,5-bisphosphate 3-kinase catalytic subunit alpha isoform (P42336 whole entry, canonical isoform): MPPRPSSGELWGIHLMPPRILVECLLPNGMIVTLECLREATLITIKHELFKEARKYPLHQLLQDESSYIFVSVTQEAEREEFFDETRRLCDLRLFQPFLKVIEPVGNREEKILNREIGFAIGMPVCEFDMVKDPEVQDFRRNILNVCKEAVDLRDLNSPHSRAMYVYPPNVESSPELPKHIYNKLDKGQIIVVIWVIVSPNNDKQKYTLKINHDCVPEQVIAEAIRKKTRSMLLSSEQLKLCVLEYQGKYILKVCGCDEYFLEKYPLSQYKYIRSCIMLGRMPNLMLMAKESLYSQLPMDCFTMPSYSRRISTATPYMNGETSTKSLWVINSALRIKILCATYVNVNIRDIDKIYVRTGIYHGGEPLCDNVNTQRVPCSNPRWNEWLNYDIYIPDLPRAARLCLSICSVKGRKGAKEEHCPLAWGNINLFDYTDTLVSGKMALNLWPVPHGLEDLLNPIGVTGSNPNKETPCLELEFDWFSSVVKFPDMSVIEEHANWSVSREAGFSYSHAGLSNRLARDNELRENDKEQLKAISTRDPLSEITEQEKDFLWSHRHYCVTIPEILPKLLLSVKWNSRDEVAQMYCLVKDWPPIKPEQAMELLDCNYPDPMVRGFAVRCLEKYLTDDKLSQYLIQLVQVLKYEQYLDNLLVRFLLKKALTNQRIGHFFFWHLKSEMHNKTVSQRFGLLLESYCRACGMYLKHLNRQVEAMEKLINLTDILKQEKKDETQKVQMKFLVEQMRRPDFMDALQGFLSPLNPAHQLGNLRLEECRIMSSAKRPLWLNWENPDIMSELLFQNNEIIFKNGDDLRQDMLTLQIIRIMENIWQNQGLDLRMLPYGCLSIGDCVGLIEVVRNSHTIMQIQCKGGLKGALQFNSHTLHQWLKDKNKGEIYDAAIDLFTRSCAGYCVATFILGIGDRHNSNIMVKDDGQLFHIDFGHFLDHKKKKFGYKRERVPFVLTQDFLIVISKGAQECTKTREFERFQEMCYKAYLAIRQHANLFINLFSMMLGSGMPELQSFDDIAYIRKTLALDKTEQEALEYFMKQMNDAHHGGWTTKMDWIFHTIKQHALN
Sequence of Phosphatidylinositol 4,5-bisphosphate 3-kinase catalytic subunit beta isoform (P42338 whole entry, canonical isoform): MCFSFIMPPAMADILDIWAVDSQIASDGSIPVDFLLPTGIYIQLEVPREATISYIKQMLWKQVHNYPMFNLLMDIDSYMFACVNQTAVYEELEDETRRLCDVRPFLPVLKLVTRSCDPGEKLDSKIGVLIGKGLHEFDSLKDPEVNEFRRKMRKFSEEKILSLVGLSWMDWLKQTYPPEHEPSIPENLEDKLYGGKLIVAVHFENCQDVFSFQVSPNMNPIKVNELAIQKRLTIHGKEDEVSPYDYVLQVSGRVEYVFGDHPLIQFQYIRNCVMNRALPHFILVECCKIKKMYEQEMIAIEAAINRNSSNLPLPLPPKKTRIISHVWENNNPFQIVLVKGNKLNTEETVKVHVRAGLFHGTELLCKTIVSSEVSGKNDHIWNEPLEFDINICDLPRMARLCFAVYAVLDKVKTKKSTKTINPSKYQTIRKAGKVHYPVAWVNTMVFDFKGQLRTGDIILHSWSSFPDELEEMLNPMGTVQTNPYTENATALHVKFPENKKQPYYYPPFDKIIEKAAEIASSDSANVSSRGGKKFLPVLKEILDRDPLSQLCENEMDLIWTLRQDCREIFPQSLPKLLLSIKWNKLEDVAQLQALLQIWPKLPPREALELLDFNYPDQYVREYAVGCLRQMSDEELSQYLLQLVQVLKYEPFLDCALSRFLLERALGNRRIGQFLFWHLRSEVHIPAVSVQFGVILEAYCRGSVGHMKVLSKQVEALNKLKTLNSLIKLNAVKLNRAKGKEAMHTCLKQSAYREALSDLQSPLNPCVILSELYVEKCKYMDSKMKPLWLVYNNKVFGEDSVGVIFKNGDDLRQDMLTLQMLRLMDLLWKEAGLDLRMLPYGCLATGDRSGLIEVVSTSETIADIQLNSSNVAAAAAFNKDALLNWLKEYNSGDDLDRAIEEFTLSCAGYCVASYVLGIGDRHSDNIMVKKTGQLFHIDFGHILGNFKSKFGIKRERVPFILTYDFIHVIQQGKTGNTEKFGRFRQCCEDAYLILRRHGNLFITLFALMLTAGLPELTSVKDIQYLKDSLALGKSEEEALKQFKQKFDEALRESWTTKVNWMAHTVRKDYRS

half-life [1]: 9.46 h | Cmax [3]: 860 ng/mL | IC50 [4]: 1 µM | IC50 [6]: 84 µM | bioavailability [12]: 126% | IC50 [14]: 794 µM | Vd [18]: 2.86 L/kg | clearance [21]: 12.5 mL/min/kg
SMILES: C[C@H]1CC[C@@H](c2nc3cccc(Cl)c3c(=O)n2-c2cccnc2)N1c1nc(N)nc(N)c1C#N
Activity (SU-DHL-6 [2]): 0.25% | Activity (SU-DHL-6 [5]): 26.15% | viability at 1.5 µM (SU-DHL-6 [7]): 74.7% | IC50 (SUD4): 0.03 µM | Activity (SU-DHL-6 [8]): 10.01% | Activity (DOHH-2 [9]): 25.8% | Activity (SU-DHL-6 [10]): 7.43% | Activity [11]: Non-Toxic | Activity (DOHH-2 [13]): 32.92% | Activity (SU-DHL-6 [15]): 63.84% | Activity (SU-DHL-6 [16]): Dde | Activity [17]: Active | Activity (SU-DHL-6 [19]): 4.62% | Activity (SU-DHL-6 [20]): 18.1%
